Measured values as given in patent publication US20250304973A1, “HIGH-AFFINITY THROMBIN APTAMERS AND METHODS OF USE” (Ayass Bioscience LLC, priority 2024, published 2025).
pKd: −log10 of the molar value. “Also recorded” adds a separate entry of the source.

How the values were obtained:
[1] = test system: human citrated plasma; assay: Prothrombin time (PT) assay in human citrated plasma; format: biochemical; settings: 2 uM, 2 h, versus untreated control
Method: Plasma was prepared by centrifugation for 10 min at 2000×g. In vitro activity assays were performed on ACLTOP analyzer manufactured by Instrumentation Laboratory, which is a type of coagulation analyzer commonly used in clinical laboratories to measure clotting times and assess coagulation parameters. The ACLTOP analyzer is designed to perform a wide range of coagulation tests, including Factor II activity, prothrombin time (PT), activated partial thromboplastin time (APTT), fibrinogen, and other related assays. ACLTOP analyzer uses HemosIL reagents developed by Instrumentation Laboratory company (Bedford, MA, USA) to perform coagulation tests.
PT time was measured using RecombiPlasTin 2G for quantitative determination in human citrated plasma of PT and Fibrinogen on an ACLTOP coagulation analyzer manufactured by Instrumentation Laboratory (Bedford, MA, USA). To assess the activity of the aptamers in a dose-dependent manner in whole blood, human blood samples were collected in citrate-treated tubes. The blood samples were then incubated at room temperature for 2 h in the absence or presence of varying concentrations of the thrombin aptamers. To measure the Prothrombin Time (PT) on the ACLTOP coagulation analyzer, plasma was obtained by centrifuging the samples at 1500×g for 10 min at 4° C. For the dose dependence study, concentrations of 1 uM, 2 uM, 3 uM, and 4 uM of AYA1809002 and AYA1809004 were utilized.
Modified aptamers chemically crosslinked with TAG, PEG, and cholesterol entities at the 3′ end, were purchased from IDT (Integrated DNA Technologies, Coralville, IA, USA). The impact of modified AYA1809002 and AYA1809004 aptamers on Factor II activity, PT, and APTT was evaluated using the same protocol as was used for the unmodified aptamers. Additionally, the potential for reversal was investigated using the respective reverse complement for each aptamer.

[2] = molecular target: T1, human alpha-thrombin protein (Homo sapiens, UniProt P00734); assay: ELISA-based binding assay of biotinylated thrombin aptamers to thrombin protein; settings: for pKd: ELISA-based competition assay, 5′ biotin aptamer with or without 100-fold excess non-biotinylated aptamer, estimated, read-out: binding affinity to thrombin, dissociation constant (Kd); for binding to immobilized human thrombin (absorbance at 450 nm): top nine enriched aptamers, biotinylated, FIG. 2A
T1 construct: Native human alpha-thrombin protein; purchased ThermoFisher Scientific RP-43100; host or cells: native protein
Method: 135. Native human alpha-thrombin protein (ThermoFisher Scientific, cat #RP-43100, Waltham, MA, USA) was added to each well of a 96-well plate (Nunc MaxiSorp flat-bottom 96-well plates, ThermoFisher Scientific, cat #44-2404-21, Waltham, MA, USA) at a concentration of 250 nM in Tris-buffered saline with a volume of 100 μL per well. The plate was then incubated at 4° C. for 16 h to allow the wells to become coated with thrombin. After removing the thrombin solution, the wells were washed and blocked using blocking buffer (20 mM Tris, 150 mM NaCl pH 7.5, 2% BSA, 0.1% Tween 20 and 100 μg/mL of sheared salmon sperm DNA) for a 1 h duration. Next, biotinylated aptamers at the indicated concentrations in a volume of 100 μL were added to the wells in an incubation buffer (20 mM Tris, 150 mM NaCl pH 7.5, 0.1% BSA, 0.1% Tween 20 and 100 μg/mL of sheared salmon sperm DNA) and incubated for 1 h at room temperature. In the competition binding assay, unlabeled aptamers were added along with the biotinylated aptamers, with the unlabeled aptamers being present in a 100-fold excess compared to the biotinylated aptamers. Following three washing steps with wash buffer (20 mM Tris, 150 mM NaCl pH 7.5, 0.1% BSA and 0.1% Tween 20), streptavidin-HRP (ThermoFisher Scientific, cat #21130, Waltham, MA, USA) was added at a dilution of 1:5000 in the incubation buffer. The plate was washed again three times to remove any unbound reagents. The bound biotinylated aptamers were then detected using 3,3′,5,5′-Tetramethylbenzidine (TMB) substrate (ThermoFisher Scientific, cat #34021, Waltham, MA, USA) following the manufacturer's instructions.

[3] = molecular target: T2, Factor II activity (Homo sapiens, UniProt P00734); assay: Dose-dependent Factor II activity in whole blood; format: biochemical; settings: 1, 2, 3, 4 uM; 2 h room temperature; citrated whole human blood
T2 construct: tissue Rockland Immunochemicals, Inc R214-0050; host or cells: human citrated plasma / whole blood
Method: 138. […] Factor II activity was measured using human plasma immunodepleted of Factor II for the quantitative determination of Factor II activity in citrated plasma based on the prothrombin time (PT) assay, for which an ACLTOP coagulation analyzer manufactured by Instrumentation Laboratory (Bedford, MA, USA) was used. To evaluate the dose-dependent activity of the aptamers in whole blood, human blood samples were collected in citrate-treated tubes. Subsequently, the blood samples were incubated at room temperature for 2 h in both the absence and presence of various concentrations of thrombin aptamers. To measure the Factor II activity using the ACLTOP coagulation analyzer, plasma was separated from the cells by centrifugation at 1500×g for 10 min at 4° C. For the dose-dependent study, concentrations of 1 uM, 2 uM, 3 uM, and 4 uM of AYA1809002 and AYA1809004 were utilized.
156. To facilitate future applications, gaining a comprehensive understanding of the activity of aptamers in whole blood is of paramount importance. To assess their effectiveness, we tested the selected aptamers at various concentrations in whole blood to evaluate their impact on Factor II activity and PT time. Human blood samples were collected in citrate- treated tubes. The blood samples were then incubated at room temperature for 2 h in the absence or presence of varying concentrations of thrombin aptamers. […]

[4] = test system: Salmonella typhimurium strains TA98, TA100, TA1535, TA1537 and Escherichia coli strains wp2 [pKM101] and wp2 uvrA; assay: Ames test (Xenometrix Ames MPF PENTA I); format: cell-based; settings: 0.5 uM to 10 uM; with and without S9
Method: 148. The mutagenic potential of AYA1809002 and AYA1809004 was evaluated using the Ames test with the Xenometrix Ames MPF PENTA I kit, including S9 and Positive Controls (Aniara Diagnostica, code: ACO1-512-S2-P; manufacturer's part number: C01-512-S2-P, West Chester Township, OH).
165. To assess the mutagenicity of the aptamers, we performed Ames test, a widely used assay for evaluating the mutagenicity of chemical compounds. The Ames test is a bac-terial reverse mutation assay that detects the ability of a substance to induce mutations in the DNA of certain strains of bacteria. It utilizes various bacterial strains, including Salmonella typhimurium strains TA98, TA100, TA1535, and TA1537, as well as the Escherichia coli strains wp2 [pKM101]and wp2 uvrA. To evaluate the mutagenic potential of an aptamer, amino acid-requiring bacterial organisms are exposed to different concentrations of the aptamer and mutagenic events are assessed by selecting for reversion events. In this context, the aptamers AYA1809002 and AYA1809004 were supplemented at increasing concentrations ranging from 0.5 uM to 10 uM.

AYA1809002: ssDNA thrombin aptamer GCGGTGTTGCTGGGGTTGGGAGGTTGGAGGAAGCAATCGC
increase in PT time [1]: three-fold increases
pKd [2]: 8.00
binding to immobilized human thrombin (absorbance at 450 nm) [2]: strong binding capabilities
effect on Factor II activity in whole blood [3]: dose-dependent decrease in Factor II activity
mutagenicity (revertants) [4]: do not exhibit mutagenic properties; also recorded: did not exhibit mutagenic properties

AYA1809004: ssDNA thrombin aptamer TCGTCAAGGTACGGTTGGGGGGGTGGGTGTTGACGTTGAA (DNA, backbone not given here)
increase in PT time [1]: three-fold increases
pKd [2]: 7.89
binding to immobilized human thrombin (absorbance at 450 nm) [2]: strong binding capabilities
effect on Factor II activity in whole blood [3]: dose-dependent decrease in Factor II activity
mutagenicity (revertants) [4]: do not exhibit mutagenic properties
